Reference: patent US6737383B1, “Herbicidal oxadiazolidines” (priority 1999, dated 2004)

Tests used:
[1] = tested on: maize hybrid P33G26; test: Test G maize injury with safener-treated seed; conditions: presence of dichlormid; with the exception of Compound 131 at the rate of 560 g/ha
Method in brief: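 Maize hybrid P33G26 seed, treated with dichlormid, fenchlorazole-ethyl or naphthalic anhydride or left untreated, was sown in soil pots, then sprayed pre-emergence with several compound rates at 310 L/ha. Plants grew in a greenhouse (14 h day, about 27/24 °C day/night), with 4–5 replicates. Injury was scored visually against untreated controls 28 days after application.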

[2] = tested on: Pioneer hybrid P33G26 corn; test: Test H corn injury, herbicide and safener mixtures applied to soil; format: in vivo; conditions: safeners for Compound 113
Method: Mixtures of the herbicide and safeners were applied to pots of a soil mixture previously sown with corn. Pioneer hybrid P33G26 corn was sown in pots containing a sterile mix of 60% sassafras soil and 40% Metro Mix 360® growing medium (pH 6.7, O.M. 2%). Test compounds were dissolved in AGWT (a mixture of 0.25% Tween 20 surfactant, 5% water, 5% glycerin and 89.75% acetone) and sprayed on the soil as pots passed under a stationary 8002E nozzle. Treatments were applied at a 33 gal/acre rate of the AGWT carrier. After treatment, the test pots were placed in the greenhouse and watered. There were two replications for each treatment. Each pot contained eight corn seeds. The pots within each replication were placed in random positions on greenhouse benches. Test plants were fertilized as they were watered with approximately 200 ppm of N (as water soluble 20-20-20 fertilizer) which was metered into the water lines with a fertilizer injector. Daytime temperatures was 23-30° C. and night time temperature was 18-25° C. The test plants were supplemented with artificial lighting. The lights were activated whenever the natural light intensity dropped below the programmed threshold. Day length was maintained for approximately 14 hours.
The test was evaluated approximately 12 days after treatment. […]

[3] = tested on: barnyardgrass; test: Test A barnyardgrass; format: in vivo, Echinochloa crus-galli; conditions: 0 to 10 scale where 0 is no effect and 10 is complete control
Method in brief: (§1)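 Injury scored visually after about eleven greenhouse days against untreated plants, 0 = no effect, 10 = complete control. Compounds, formulated in surfactant-containing non-phytotoxic solvent, were applied as preemergence soil drench to sandy loam plantings and as postemergence runoff spray at the 1–2 leaf stage.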

[4] = tested on: crabgrass; test: Test A crabgrass; format: in vivo, Digitaria spp.; conditions: 0 to 10 scale where 0 is no effect and 10 is complete control
Method: Seeds of barnyardgrass (Echinochloa crus-galli), crabgrass (Digitaria spp.), morningglory (Ipomoea spp.), and velvetleaf (Abutilon theophrasti) were planted into a sandy loam soil and treated preemergence by soil drench with test chemicals formulated in a non-phytotoxic solvent mixture which includes a surfactant At the same time, these crop and weed species were also treated postemergence sprayed to runoff, with test chemicals formulated in the same manner.
Plants ranged in height from two to eighteen cm and were in the one to two leaf stage for the postemergence treatment. Treated plants and untreated controls were maintained in a greenhouse for approximately eleven days, after which all treated plants were compared to untreated controls and visually evaluated for injury. Plant response ratings, summarized in Table A, are based on a 0 to 10 scale where 0 is no effect and 10 is complete control.

[5] = tested on: morningglory; test: Test A morningglory; format: in vivo, Ipomoea spp.; conditions: 0 to 10 scale where 0 is no effect and 10 is complete control
Method in brief: as §1

[6] = tested on: velvetleaf; test: Test A velvetleaf; format: in vivo, Abutilon theophrasti; conditions: 0 to 10 scale where 0 is no effect and 10 is complete control
Method in brief: as §1

In the case of C=CCN(CC=C)C(=O)C(Cl)Cl [dichlormid, reference compound], the “Safening effect on maize injury” value [1] is reported as “reduced the injury to an insignificant level” and the “Safening of Compound 113 on corn” value [2] is reported as “functioned very effectively as safeners”.
In the case of CC(C)N(C(=O)n1oc(=O)[nH]c1=O)c1ccccc1 [Compound 386], the “Plant response rating, Barnyardgrass” value ([3]; Postemergence, Rate 1000 g/ha) is reported as 0, the “Plant response rating, Barnyardgrass” value ([3]; Pre-emergence, Rate 2000 g/ha) is reported as 0 and the “Plant response rating, Crabgrass” value ([4]; Postemergence, Rate 1000 g/ha) is reported as 0. For the same compound, the “Plant response rating, Crabgrass” value ([4]; Pre-emergence, Rate 2000 g/ha) was 0, the “Plant response rating, Morningglory” value ([5]; Postemergence, Rate 1000 g/ha) was 0 and the “Plant response rating, Morningglory” value ([5]; Pre-emergence, Rate 2000 g/ha) was 0. The “Plant response rating, Velvetleaf” value ([6]; Postemergence, Rate 1000 g/ha) was 0, the “Plant response rating, Velvetleaf” value ([6]; Pre-emergence, Rate 2000 g/ha) was 0 and the melting point was 116 to 117 °C.
